# Strand notation (5' to 3'): a small letter for the sugar, then the base; units joined by * are phosphorothioate-linked, units joined directly phosphodiester-linked; [ ] holds rarer units or linkages, { } end groups; capitals alone tell only the bases. l = locked nucleic acid (LNA); [5mC] = 5-methylcytosine; d = 2'-deoxy (DNA)
# Test system: SNORA23
# Assay: knock-down of target RNA after transdermal or subcutaneous administration to tumor-bearing mice (RT-PCR)
# Format: in vivo
# Settings: for expression level of the target RNA (SNORA23): 250 μg ASO in 50 μL, two days after, skin, subcutaneous tumor, liver, FIG. 34
# Experimental: A formulation targeting SNORA23 was prepared. To mice, 3×10^6 ES2 ovarian carcinoma cells were subcutaneously transplanted, and the formation of subcutaneous tumor was checked 1 week after that. To the top (1 cm×1 cm) of a tumor or into the periphery of a tumor, 50 μL of hybrid particles containing 250 μg of ASO targeting SNORA23 was applied or subcutaneously injected. For the transdermal administration group, protective tape was wound once around the trunk including the administration site.
# Two days after the administration, the skin, subcutaneous tumor, and liver were isolated, and total RNA was extracted. The level of targeted RNA (SNORA23) was quantified, and the presence or absence of reduction in the expression level was examined by an RT-PCR method.
substance,measurement,setting,value
5′-GAAacctatgmCAmCa-3′ (lG*lA*lA*dA*dC*dC*dT*dA*dT*dG*l[5mC]*lA*l[5mC]*dA) [ASO],knock-down of target RNA in the liver,"irrespective of the route of administration, suggests migration of ASO into blood",knock-down effect
same,expression level of the target RNA (SNORA23),subcutaneous administration,Reduction of the expression level of the target RNA was induced
same,expression level of the target RNA (SNORA23),transdermal administration,Reduction of the expression level of the target RNA was induced
